Experimental data: US20090018118A1, “HETEROCYCLIC COMPOUNDS” (priority 2005, published 2009)
Structures can show the parent of a compound that is named as a salt. Where two headings read alike, the source gives them in different places.

Test system: cholesterol biosynthesis in HepG2 cells
Assay: Metabolic labeling of HepG2 cells with [3H]acetate; radio-HPLC sterol profile (inhibition of cholesterol biosynthesis)
Type: cell-based, human
Details: for activity at 10 µM: Homo sapiens, 24 h, Table I, sterol level normalized to normal medium (1.00), mean of 4 experiments; for activity at 10 µM / FF-MAS / cholesterol / desmosterol / lanosterol / lathosterol / zymosterol+7-dehydrocholesterol: 10 μM compound; for activity at 10 µM / FF-MAS / cholesterol / desmosterol / lanosterol / lathosterol / zymosterol+7-dehydrocholesterol / all sterol levels (in words): HepG2; for FF-MAS / cholesterol / desmosterol / lanosterol / lathosterol / zymosterol+7-dehydrocholesterol: Table II (arranged by sterol profile), normalized to normal medium (1.00); for all sterol levels (in words): relative to normal medium (unity)
Protocol: In accordance with the aims of the invention, the effect of the novel compounds on inhibition of cholesterol biosynthesis is assessed. An ex vivo method of metabolic labeling of immortal human hepatocytes is employed. The radioactively labeled early precursor of cholesterol [3H]acetate is added to cells with or without addition of an active new compound.
An ex vivo method of metabolic labeling of immortal human hepatocytes is employed. The radioactively labeled early precursor of cholesterol [3H]acetate is added to cells with or without addition of an active compound.
Cell culture incubation with potential inhibitors of cholesterol biosynthesis and statins Human hepatoma cell line (HepG2-ATCC No. HB-8065) is split in the recommended ratio (1:2-3) into 75 cm^2 cell flasks using two flasks per experimental condition. Cells are incubated at 37° C. with 5% CO2 in Dulbeco's modified Eagle medium (DMEM high (Sigma)) containing 5% calf serum (Sigma) and 1% L-glutamine (Sigma). After 24-hours-culturing in the growth medium, the medium is replaced with the one supplemented with 10 μM concentration of a LK compound, potential inhibitor of cholesterol biosynthesis. 10 μM solution of atorvastatin, inhibitor of HMG-CoA reductase, serves as a positive control.
After 24 hours the growth medium is changed and [^3H]acetate (NEN™ Life Science Products) added in a concentration of 40 μCi per ml of the medium (400 μCi per flask). After 4 hours cells are harvested using 2 ml of trypsin (Sigma) and the cell pellet is resuspended in 1 ml of distilled water. Cells are homogenized using the freeze and thaw method. From cell homogenate sterols are extracted and protein concentration determined using the Bio-Rad reagent.
Homogenates are transferred into 4 ml glass vial and sterols are extracted in 3 ml of extraction solution (75% n-heptane: 25% isopropanol (vol./vol.)) with ergosterol as an internal standard. For better extraction 100 μl of 0.3M NaH2PO4 (pH=1.0) is added. Closed vials are vigorously shaken (1800 rpm) for 2 hours. After extraction procedure vials are centrifuged (2000 g, 10 min) and the organic phase is transferred to fresh conical glass tubes. Extraction procedure is repeated using 1 ml of extraction solution for 15 min. Organic phases are pooled. Primary extracts are dried in vacuum centrifuge, redissolved in 3 ml of n-heptane, and incubated for 10 min at room temperature with mild shaking. After centrifugation (10 min, 2000 g) extracts are transferred into fresh glass tubes and stored in dark and cold.
The organic phase is dried, reconstituted in mobile phase for reversed phase HPLC separation and loaded onto a-HPLC column, Prism-RPN, 5 μm, 250×4,6 mm running in 100% acetonitrile at 1.00 ml/min at 40° C. temperature. Scintillation liquid is added after UV detection at 30 ml/h, at room temperature, to evaluate tritium labeled sterols on a radio detector.
Sterols are determined by comparing the eluted peaks with runs of commercial standards of lanosterol, ergosterol, desmosterol, zymosterol, 7-dehydrocholesterol, lathosterol and cholesterol or laboratory standards (FF-MAS-4,4-Dimethylcholesta-8(9),14,24-triene-3β-ol- and T-MAS-4,4-Dimethylcholesta8(9),24,diene-3,6-ol, Laboratory of Reproductive Biology, The Juliane Marie Center for Children, Women and Reproduction, University Hospital of Copenhagen, DK-2100 Copenhagen, Denmark). Results were normalized on ergosterol quantity and protein concentration. Results are presented as a mean from 4 separated experiments.
The influence of a 10 μM solution of novel LK-substances on cholesterol biosynthesis in the assay on HepG2 cells is presented in Table I. Compounds are arranged according to the building blocks, three of them are 2-pyridineethanols, 2-pyridineethylpiperazines and pyridinemethylpiperazines.
Normal medium pertains to cell cultures without a compound of the invention. Its sterol levels were used for normalization. 10 μM solution of atorvastatin serves as a positive control.

[1] = read-out: zymosterol+7-dehydrocholesterol

SMILES | activity at 10 µM (read-out: FF-MAS) [%] | activity at 10 µM (read-out: cholesterol) [%] | activity at 10 µM (read-out: desmosterol) [%] | activity at 10 µM (read-out: lanosterol) [%] | activity at 10 µM (read-out: lathosterol) [%] | activity at 10 µM [1] [%] | FF-MAS | cholesterol | desmosterol | lanosterol | lathosterol | zymosterol+7-dehydrocholesterol | all sterol levels (in words) (10 μM) | de novo cholesterol biosynthesis (in words) (10 μM, HepG2, radio-HPLC chromatograms)
OC(CN1CCN(CCc2ccccc2)CC1)c1ccncc1 (centres unmarked) [LK-9110B, 2-(4-Phenethylpiperazine-1-yl)-1-(pyridine-4-yl)ethanol] | 374 | 0 | 17 | 96 | 78 | 137 | 3.74 | 0.00 | 0.17 | 0.96 | 0.78 | 1.37 | – | –
FC(F)(F)c1cnc(N2CCCN(CCc3ccccc3)CC2)c(Cl)c1 [LK-9115, 1-(3-Chloro-5-(trifluoromethyl)pyridine-2-yl)-4-phenethyl-1,4-diazepane trihydrobromide] | 442 | 0 | 0 | 84 | 21 | 91 | 4.42 | 0.00 | 0.00 | 0.84 | 0.21 | 0.91 | – | –
c1ccc(CCN2CCN(CCc3ccncc3)CC2)cc1 [LK-9118B, 1-Phenethyl-4-(2-(pyridine-4-yl)ethyl)piperazine] | 350 | 0 | 47 | 146 | 23 | 90 | 3.50 | 0.00 | 0.47 | 1.46 | 0.23 | 0.90 | – | –
Fc1ccc(CCN2CCN(CCc3ccncc3)CC2)cc1F [LK-9131, 1-(3,4-di-Fluorophenethyl)-4-(2-(pyridin-4-yl)ethyl)piperazine trihydrobromide] | 72 | 0 | 1 | 69 | 5 | 9 | 0.72 | 0.00 | 0.01 | 0.69 | 0.05 | 0.09 | reduce all sterol levels below unity | –
Clc1ccc(CCN2CCN(CCc3ccncc3)CC2)cc1Cl [LK-9135, 1-(3,4-Dichlorophenethyl)-4-(2-(pyridin-4-yl)ethyl)piperazine trihydrobromide] | 27 | 0 | 0 | 43 | 0 | 2 | 0.27 | 0.00 | 0.00 | 0.43 | 0.00 | 0.02 | reduce all sterol levels below unity | –
Clc1ccc(CCN2CCN(CCc3ccccn3)CC2)cc1Cl [LK-9137, 1-(3,4-Dichlorophenethyl)-4-(2-(pyridin-2-yl)ethyl)piperazine trihydrobromide] | 142 | 6 | 22 | 63 | 60 | 141 | 1.42 | 0.06 | 0.22 | 0.63 | 0.60 | 1.41 | – | –
Fc1ccc(CCN2CCN(CCc3ccccn3)CC2)cc1F [LK-9138, 1-(3,4-Difluorophenethyl)-4-(2-(pyridin-2-yl)ethyl)piperazine trihydrobromide] | 70 | 1 | 7 | 25 | 8 | 21 | 0.70 | 0.01 | 0.07 | 0.25 | 0.08 | 0.21 | reduce all sterol levels below unity | –
Cc1ccc(C(O)CN2CCN(CCc3ccccc3)CC2)cn1 (centres unmarked) [LK-9139, 2-(4-Phenethylpiperazine-1-yl)-1-(6-methylpyridin-3-yl)ethanol trihydrobromide] | 119 | 1 | 14 | 38 | 15 | 38 | 1.19 | 0.01 | 0.14 | 0.38 | 0.15 | 0.38 | – | –
c1ccc(CCN2CCN(CCCc3cccnc3)CC2)cc1 [LK-9140, 1-Phenethyl-4-(3-(pyridine-3-yl)propyl)piperazine trihydrobromide] | 72 | 0 | 1 | 24 | 3 | 15 | 0.72 | 0.00 | 0.01 | 0.24 | 0.03 | 0.15 | reduce all sterol levels below unity | –
OC(CN1CCN(c2ccc(F)cc2)CC1)c1cccnc1 (centres unmarked) [LK-9144, 2-(4-(4-Fluorophenyl)piperazine-1-yl)-1-(pyridine-3-yl)ethanol trihydrobromide] | 99 | 9 | 5 | 88 | 56 | 150 | 0.99 | 0.09 | 0.05 | 0.88 | 0.56 | 1.50 | – | –
OC(CN1CCN(Cc2ccc(F)cc2)CC1)c1cccnc1 (centres unmarked) [LK-9148, 2-(4-(4-Fluorobenzyl)piperazine-1-yl)-1-(pyridine-3-yl)ethanol trihydrobromide] | 125 | 14 | 38 | 80 | 65 | 144 | 1.25 | 0.14 | 0.38 | 0.80 | 0.65 | 1.44 | – | –
CC(C)c1c(C(=O)Nc2ccccc2)c(-c2ccccc2)c(-c2ccc(F)cc2)n1CC[C@@H](O)C[C@@H](O)CC(=O)O [atorvastatin, reference compound] | 0 | 0 | 0 | 0 | 0 | 0 | 0.00 | 0.00 | 0.00 | 0.00 | 0.00 | 0.00 | – | complete suppression of cholesterol biosynthesis as well as cholesterol precursors
